Laboratory results published in ChEMBL document CHEMBL4765450, “The components and activities analysis of a novel anticoagulant candidate dHG-5” (Eur J Med Chem, 2020).
The source made the active and inactive calls. The rule behind the calls is not given here.

Tests used:
[1] = target: T1, Coagulation factor VII (Homo sapiens) (UniProt P08709); assay: Inhibition of factor 7a (unknown origin) at IC50 using pefachrome factor VIIa as substrate preincubated for 1 min followed by chromogenic substrate addition and measured for 2 mins in presence of AT-III; details: time 3.0 min
T1 sequence (whole entry): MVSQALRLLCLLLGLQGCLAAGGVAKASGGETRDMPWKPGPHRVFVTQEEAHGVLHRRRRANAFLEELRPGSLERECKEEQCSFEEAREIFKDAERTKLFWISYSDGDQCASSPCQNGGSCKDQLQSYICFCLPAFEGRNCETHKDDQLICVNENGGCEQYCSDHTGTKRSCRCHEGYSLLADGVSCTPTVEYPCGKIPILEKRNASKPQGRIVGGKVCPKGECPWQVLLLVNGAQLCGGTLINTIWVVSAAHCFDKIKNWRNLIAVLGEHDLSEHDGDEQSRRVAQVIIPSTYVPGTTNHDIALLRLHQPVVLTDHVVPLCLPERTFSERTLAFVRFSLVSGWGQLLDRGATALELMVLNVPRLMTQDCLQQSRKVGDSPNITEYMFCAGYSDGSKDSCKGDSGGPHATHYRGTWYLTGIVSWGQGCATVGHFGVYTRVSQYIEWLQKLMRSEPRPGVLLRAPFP

[2] = test system: Rattus norvegicus; assay: Antithrombotic activity in thromboplastin and stasis-induced Sprague-Dawley rat deep venous thrombosis model assessed as reduction in venous thrombosis at 1.52 mg/kg, sc administered 1 hr prior to thromboplastin addition for 20 secs followed by establishment of stasis for 20 mins; type: functional; details: 1.339 h, time 80.33 min
[3] = target: Coagulation factor XI (Homo sapiens) (UniProt P03951); assay: Inhibition of factor 11a (unknown origin) at IC50 using S-2366 as substrate preincubated for 1 min followed by chromogenic substrate addition and measured for 2 mins; details: time 3.0 min
Chain of Coagulation factor XI (Homo sapiens) (P03951 19-387 limits assumed): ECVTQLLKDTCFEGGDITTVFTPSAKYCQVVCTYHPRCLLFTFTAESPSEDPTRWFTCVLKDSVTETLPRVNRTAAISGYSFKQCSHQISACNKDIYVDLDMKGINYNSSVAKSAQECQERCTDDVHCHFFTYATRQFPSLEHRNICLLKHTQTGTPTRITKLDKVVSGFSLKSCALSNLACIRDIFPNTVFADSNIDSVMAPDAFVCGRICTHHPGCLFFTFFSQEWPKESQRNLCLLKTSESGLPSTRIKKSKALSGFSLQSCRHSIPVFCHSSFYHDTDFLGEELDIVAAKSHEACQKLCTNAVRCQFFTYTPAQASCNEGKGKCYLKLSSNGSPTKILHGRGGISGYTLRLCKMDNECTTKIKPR
Chain of Coagulation factor XI (Homo sapiens) (P03951 388-625 limits assumed): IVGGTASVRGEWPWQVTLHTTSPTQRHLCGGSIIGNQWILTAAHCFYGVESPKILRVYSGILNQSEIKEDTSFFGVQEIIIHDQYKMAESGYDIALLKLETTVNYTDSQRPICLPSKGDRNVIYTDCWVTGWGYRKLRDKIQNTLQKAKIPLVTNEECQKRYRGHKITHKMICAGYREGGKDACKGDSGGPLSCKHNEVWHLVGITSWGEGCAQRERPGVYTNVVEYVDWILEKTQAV

[4] = test system: Plasma; assay: Anticoagulation activity in human plasma assessed as drug level causing 20 times doubling of APTT preincubated for 2 mins followed by APTT reagent and measured after 3 mins by coagulometric method relative to dHG-5; type: functional; details: time 5 min
[5] = target: T2, Coagulation factor IX (Homo sapiens, UniProt P00740); assay: Inhibition of factor 9a (unknown origin) binding to immobilized biotinylated oHG-11 assessed as activity potency of oligosaccharides multiplied by the percentage of oligosaccharides in dHG-5 by biolayer interferometry relative to dHG-5
T2 sequence (P00740 47-191 limits assumed): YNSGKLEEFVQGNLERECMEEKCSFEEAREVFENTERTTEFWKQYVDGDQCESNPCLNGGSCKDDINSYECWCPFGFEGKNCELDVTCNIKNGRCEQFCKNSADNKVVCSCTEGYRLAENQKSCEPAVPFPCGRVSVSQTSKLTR
T2 sequence (P00740 227-461 limits assumed): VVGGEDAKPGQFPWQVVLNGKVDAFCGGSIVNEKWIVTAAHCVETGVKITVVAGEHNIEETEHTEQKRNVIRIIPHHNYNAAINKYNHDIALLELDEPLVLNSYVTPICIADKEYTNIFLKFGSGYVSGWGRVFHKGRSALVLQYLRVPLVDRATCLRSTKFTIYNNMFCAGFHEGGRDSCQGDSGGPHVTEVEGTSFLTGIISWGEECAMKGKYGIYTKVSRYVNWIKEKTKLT

[6] = target: T3, Coagulation factor IX/VIII (Homo sapiens) (UniProt P00740+P00451); assay: Inhibition of human citrated plasma iXase (factor 8a-factor 9a complex) preincubated for 2 mins followed by factor 10 addition and measured after 1 min by FXa chromogenic substrate SXa-11 based assay relative to dHG-5; type: protein-complex assay; details: time 3.0 min
[7] = test system: Plasma; assay: Anticoagulation activity in AT-III-deficient human plasma preincubated for 2 mins followed by APTT reagent and measured after 3 mins by coagulometric method; type: functional, cell-free; details: time 5.0 min
[8] = test system: Rattus norvegicus; assay: Antithrombotic activity in thromboplastin and stasis-induced Sprague-Dawley rat deep venous thrombosis model assessed as reduction in venous thrombosis at 1.52 mg/kg, sc administered 1 hr prior to thromboplastin addition for 20 secs followed by establishment of stasis for 20 mins relative to dHG-5; type: functional; details: time 80.33 min, 1.339 h
[9] = target: Coagulation factor XI (Homo sapiens) (UniProt P03951); assay: Inhibition of factor 11a (unknown origin) at IC50 using S-2366 as substrate preincubated for 1 min followed by chromogenic substrate addition and measured for 2 mins in presence of AT-III; details: time 3.0 min
[10] = test system: Plasma; assay: Induction of platelet aggregation in human platelet rich plasma at plasma peak concentration of 10 times anti-thrombosis ED50 measured after 10 mins by light transmission aggregometry
[11] = target: Prothrombin (Homo sapiens) (UniProt P00734); assay: Inhibition of factor 2a (unknown origin) at IC50 preincubated for 1 min followed by chromogenic substrate addition and measured for 2 mins in presence of AT-III; details: time 3.0 min
[12] = target: Coagulation factor X (Homo sapiens) (UniProt P00742); assay: Inhibition of factor 10a (unknown origin) at IC50 preincubated for 1 min followed by chromogenic substrate addition and measured for 2 mins in presence of AT-III; details: time 3.0 min
Chain of Coagulation factor X (Homo sapiens) (P00742 41-179 limits assumed): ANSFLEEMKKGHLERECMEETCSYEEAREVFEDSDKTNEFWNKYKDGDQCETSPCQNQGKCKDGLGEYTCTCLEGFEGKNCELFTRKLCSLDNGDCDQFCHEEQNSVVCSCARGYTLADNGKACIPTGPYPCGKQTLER
Chain of Coagulation factor X (Homo sapiens) (P00742 235-488 limits assumed): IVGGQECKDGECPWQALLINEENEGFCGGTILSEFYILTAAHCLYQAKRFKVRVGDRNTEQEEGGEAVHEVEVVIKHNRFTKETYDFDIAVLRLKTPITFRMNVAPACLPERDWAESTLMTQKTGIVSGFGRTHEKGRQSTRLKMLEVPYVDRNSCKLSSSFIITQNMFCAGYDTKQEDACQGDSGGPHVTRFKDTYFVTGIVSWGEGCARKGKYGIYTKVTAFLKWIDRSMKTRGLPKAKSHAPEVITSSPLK

[13] = target: Coagulation factor XI (Homo sapiens) (UniProt P03951); assay: Inhibition of factor 11a (unknown origin) at IC90 using S-2366 as substrate preincubated for 1 min followed by chromogenic substrate addition and measured for 2 mins in presence of AT-III; details: time 3.0 min
[14] = target: T2, Coagulation factor IX; assay: Inhibition of factor 9a (unknown origin) binding to immobilized biotinylated oHG-11 by biolayer interferometry relative to dHG-5
[15] = test system: Plasma; assay: Induction of platelet aggregation in rat wash platelet at plasma peak concentration of 10 times anti-thrombosis ED50 measured after 10 mins by light transmission aggregometry
[16] = target: Coagulation factor X (Homo sapiens) (UniProt P00742); assay: Inhibition of factor 10a (unknown origin) at IC90 preincubated for 1 min followed by chromogenic substrate addition and measured for 2 mins in presence of AT-III relative to control; details: time 3.0 min
[17] = test system: Plasma; assay: Anticoagulation activity in human plasma assessed as drug level causing 20 times doubling of APTT by measuring activity potency of oligosaccharides multiplied by the percentage of oligosaccharides in dHG-5 preincubated for 2 mins followed by APTT reagent and measured after 3 mins by coagulometric method relative to dHG-5; type: functional; details: time 5 min
[18] = test system: Plasma; assay: Anticoagulation activity in HCII-deficient human plasma preincubated for 2 mins followed by APTT reagent and measured after 3 mins by coagulometric method; type: functional, cell-free; details: time 5.0 min
[19] = target: T3, Coagulation factor IX/VIII (Homo sapiens); assay: Inhibition of human citrated plasma iXase (factor 8a-factor 9a complex) assessed as activity potency of oligosaccharides multiplied by the percentage of oligosaccharides in dHG-5 preincubated for 2 mins followed by factor 10 addition and measured after 1 min by FXa chromogenic substrate SXa-11 based assay relative to dHG-5; type: protein-complex assay; details: time 3.0 min
[20] = target: T4, Coagulation factor XII (Homo sapiens) (UniProt P00748); assay: Inhibition of factor 12a (unknown origin) at IC50 using kallikrein chromogenic substrate preincubated for 1 min followed by chromogenic substrate addition and measured for 2 mins in presence of AT-III; details: time 3.0 min
T4 sequence (whole entry): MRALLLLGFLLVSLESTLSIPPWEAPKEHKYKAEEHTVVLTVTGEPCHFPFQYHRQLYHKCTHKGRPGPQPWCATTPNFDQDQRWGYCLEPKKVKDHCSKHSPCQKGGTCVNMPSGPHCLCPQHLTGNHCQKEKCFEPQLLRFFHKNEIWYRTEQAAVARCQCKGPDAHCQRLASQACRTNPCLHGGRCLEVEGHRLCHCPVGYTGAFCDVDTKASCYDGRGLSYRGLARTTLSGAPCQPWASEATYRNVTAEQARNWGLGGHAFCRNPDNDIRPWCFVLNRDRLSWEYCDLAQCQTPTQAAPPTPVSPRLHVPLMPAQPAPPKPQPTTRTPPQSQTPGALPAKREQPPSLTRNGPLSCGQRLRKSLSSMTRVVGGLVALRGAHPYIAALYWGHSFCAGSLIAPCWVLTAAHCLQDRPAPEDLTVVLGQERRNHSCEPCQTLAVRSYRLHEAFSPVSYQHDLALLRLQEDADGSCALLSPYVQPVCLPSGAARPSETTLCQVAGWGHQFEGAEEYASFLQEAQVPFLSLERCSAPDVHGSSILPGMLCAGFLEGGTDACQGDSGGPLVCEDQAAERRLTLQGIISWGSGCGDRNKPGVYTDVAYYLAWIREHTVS

[21] = test system: Rattus norvegicus; assay: Antithrombotic activity in thromboplastin and stasis-induced Sprague-Dawley rat deep venous thrombosis model assessed as reduction in venous thrombosis by measuring activity potency of oligosaccharides multiplied by the percentage of oligosaccharides in dHG-5 at 1.52 mg/kg, sc administered 1 hr prior to thromboplastin addition for 20 secs followed by establishment of stasis for 20 mins relative …; type: functional; details: time 80.33 min, 1.339 h
[22] = target: Coagulation factor X (Homo sapiens) (UniProt P00742); assay: Inhibition of factor 10a (unknown origin) at IC50 preincubated for 1 min followed by chromogenic substrate addition and measured for 2 mins; details: time 3.0 min
[23] = target: Prothrombin (Homo sapiens) (UniProt P00734); assay: Inhibition of factor 2a (unknown origin) at IC50 preincubated for 1 min followed by chromogenic substrate addition and measured for 2 mins; details: time 3.0 min
[24] = target: T1, Coagulation factor VII (Homo sapiens); assay: Inhibition of factor 7a (unknown origin) at IC50 using pefachrome factor VIIa as substrate preincubated for 1 min followed by chromogenic substrate addition and measured for 2 mins; details: time 3.0 min
[25] = target: Prothrombin (Homo sapiens) (UniProt P00734); assay: Inhibition of factor 2a (unknown origin) at IC90 preincubated for 1 min followed by chromogenic substrate addition and measured for 2 mins in presence of AT-III; details: time 3.0 min
[26] = target: T4, Coagulation factor XII (Homo sapiens); assay: Inhibition of factor 12a (unknown origin) at IC50 using kallikrein chromogenic substrate preincubated for 1 min followed by chromogenic substrate addition and measured for 2 mins; details: time 3.0 min

CC(=O)N[C@H]1[C@H](O[C@@H]([C@H](O[C@@H]2O[C@@H](C)[C@@H](OS(=O)(=O)[O-])[C@@H](OS(=O)(=O)O)[C@@H]2O)[C@@H](O)CO)[C@H](O)C(=O)[O-])O[C@H](COS(=O)(=O)[O-])[C@H](OS(=O)(=O)[O-])[C@@H]1O[C@@H]1O[C@H](C(=O)[O-])[C@@H](O[C@@H]2O[C@H](COS(=O)(=O)[O-])[C@H](OS(=O)(=O)[O-])[C@H](O[C@@H]3O[C@H](C(=O)[O-])[C@@H](O[C@@H]4O[C@H](COS(=O)(=O)[O-])[C@H](OS(=O)(=O)[O-])[C@H](O[C@@H]5O[C@H](C(=O)[O-])[C@@H](O[C@@H]6O[C@H](COS(=O)(=O)[O-])[C@H](OS(=O)(=O)[O-])[C@H](O[C@@H]7O[C@H](C(=O)[O-])[C@@H](O[C@@H]8O[C@H](COS(=O)(=O)[O-])[C@H](OS(=O)(=O)[O-])[C@H](O[C@@H]9O[C@H](C(=O)[O-])[C@@H](O[C@@H]%10O[C@H](COS(=O)(=O)[O-])[C@H](OS(=O)(=O)[O-])[C@H](O[C@@H]%11O[C@H](C(=O)[O-])[C@@H](O[C@@H]%12O[C@H](COS(=O)(=O)[O-])[C@H](OS(=O)(=O)[O-])[C@H](O[C@@H]%13O[C@H](C(=O)[O-])[C@@H](O[C@@H]%14O[C@H](COS(=O)(=O)[O-])[C@H](OS(=O)(=O)[O-])[C@H](O[C@@H]%15O[C@H](C(=O)[O-])[C@@H](O[C@@H]%16O[C@H](COS(=O)(=O)[O-])[C@H](OS(=O)(=O)[O-])[C@H](O[C@@H]%17OC(C(=O)O)=C[C@H](O[C@@H]%18O[C@@H](C)[C@@H](OS(=O)(=O)[O-])[C@@H](OS(=O)(=O)O)[C@@H]%18O)[C@H]%17O)[C@H]%16NC(C)=O)[C@H](O[C@@H]%16O[C@@H](C)[C@@H](OS(=O)(=O)[O-])[C@@H](OS(=O)(=O)O)[C@@H]%16O)[C@H]%15O)[C@H]%14NC(C)=O)[C@H](O[C@@H]%14O[C@@H](C)[C@@H](OS(=O)(=O)[O-])[C@@H](OS(=O)(=O)O)[C@@H]%14O)[C@H]%13O)[C@H]%12NC(C)=O)[C@H](O[C@@H]%12O[C@@H](C)[C@@H](OS(=O)(=O)[O-])[C@@H](OS(=O)(=O)O)[C@@H]%12O)[C@H]%11O)[C@H]%10NC(C)=O)[C@H](O[C@@H]%10O[C@@H](C)[C@@H](OS(=O)(=O)[O-])[C@@H](OS(=O)(=O)O)[C@@H]%10O)[C@H]9O)[C@H]8NC(C)=O)[C@H](O[C@@H]8O[C@@H](C)[C@@H](OS(=O)(=O)[O-])[C@@H](OS(=O)(=O)O)[C@@H]8O)[C@H]7O)[C@H]6NC(C)=O)[C@H](O[C@@H]6O[C@@H](C)[C@@H](OS(=O)(=O)[O-])[C@@H](OS(=O)(=O)O)[C@@H]6O)[C@H]5O)[C@H]4NC(C)=O)[C@H](O[C@@H]4O[C@@H](C)[C@@H](OS(=O)(=O)[O-])[C@@H](OS(=O)(=O)O)[C@@H]4O)[C@H]3O)[C@H]2NC(C)=O)[C@H](O[C@@H]2O[C@@H](C)[C@@H](OS(=O)(=O)[O-])[C@@H](OS(=O)(=O)O)[C@@H]2O)[C@H]1O.[Na+].[Na+].[Na+].[Na+].[Na+].[Na+].[Na+].[Na+].[Na+].[Na+].[Na+].[Na+].[Na+].[Na+].[Na+].[Na+].[Na+].[Na+].[Na+].[Na+].[Na+].[Na+].[Na+].[Na+].[Na+].[Na+].[Na+].[Na+].[Na+].[Na+].[Na+].[Na+].[Na+].[Na+].[Na+].[Na+].[Na+]
inhibition [1]: inactive | inhibition in vivo at 1.52 mg/kg [2]: 36.4% | inhibition [3]: inactive | Ratio [4]: 426.19 U | Ratio [5]: 4.46 U | Ratio [6]: 478 U | Activity [7]: Active | Ratio [8]: 233.18 U | inhibition [9]: inactive | Activity [10]: Not Active | inhibition [11]: inactive | inhibition [12]: inactive | inhibition [13]: Active | Ratio [14]: 151 U | Activity [15]: Not Active | inhibition [16]: inactive | Ratio [17]: 12.57 U | Activity [18]: Active | Ratio [19]: 14.1 U | inhibition [20]: inactive | Ratio [21]: 7 U | inhibition [22]: inactive | inhibition [23]: inactive | inhibition (active/not active) [24]: inactive | inhibition [25]: Active | inhibition [26]: inactive
